Laboratory results from patent US20080200454A1, “CARBON-LINKED TETRAHYDRO-PYRAZOLO-PYRIDINE MODULATORS OF CATHEPSIN S” (priority 2007, published 2008).
Read-outs that look alike come from different tables or passages of the source.

Biological target: Recombinant human cathepsin S (CatS) (Homo sapiens, UniProt P25774)
Assay: Recombinant human cathepsin S (CatS) inhibition assay, fluorogenic substrate Z-Valine-Valine-Arginine-AMC;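 further: Baculovirus-expressed CatS in pH 5.0 sodium acetate buffer with DTT and NaCl, fluorescence read each minute over 20 min, inhibition derived from rate slope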

Chain of Recombinant human cathepsin S (CatS) (P25774 115-331): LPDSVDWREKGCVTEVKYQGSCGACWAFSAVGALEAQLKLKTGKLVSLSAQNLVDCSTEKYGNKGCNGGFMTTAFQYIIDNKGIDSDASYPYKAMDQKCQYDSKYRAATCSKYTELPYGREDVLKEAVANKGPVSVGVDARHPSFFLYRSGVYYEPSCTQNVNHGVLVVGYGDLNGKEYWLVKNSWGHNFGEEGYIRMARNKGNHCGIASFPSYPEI

Structure (SMILES) | IC50 [nM] | IC50 (CatS IC50) [nM] | also measured
NC(=O)C1CCN(CCCn2nc(-c3ccc(Cl)c(C#Cc4ccc(CNCc5ccc(Cl)cc5)cc4)c3)c3c2CCN(C(N)=O)C3)CC1 [Example 461, 1-{3-[4-(Aminocarbonyl)piperidin-1-yl]propyl}-3-(4-chloro-3-{[4-({[(4-chlorophenyl)methyl]amino}methyl)phenyl]ethynyl}phenyl)-1,4,6,7-tetrahydro-5H-pyrazolo[4,3-c]pyridine-5-carboxamide] | 30 | – | –
NC(=O)N1CCc2c(c(-c3ccc(Cl)c(C#Cc4ccc(CNCc5ccc(Cl)cc5)cc4)c3)nn2CCCN2CCC3(CC2)OCCO3)C1 [Example 462, 3-(4-Chloro-3-{[4-({[(4-chlorophenyl)methyl]amino}methyl)phenyl]ethynyl}phenyl)-1-[3-(1,4-dioxa-8-azaspiro[4.5]dec-8-yl)propyl]-1,4,6,7-tetrahydro-5H-pyrazolo[4,3-c]pyridine-5-carboxamide] | – | 50 | –
NC(=O)N1CCc2c(c(-c3ccc(Cl)c(C#Cc4ccc(CNCc5ccc(Cl)cc5)cc4)c3)nn2CCCN2CCN(C3CC3)CC2)C1 [Example 463, 3-(4-Chloro-3-{[4-({[(4-chlorophenyl)methyl]amino}methyl)phenyl]ethynyl}phenyl)-1-[3-(4-cyclopropylpiperazin-1-yl)propyl]-1,4,6,7-tetrahydro-5H-pyrazolo[4,3-c]pyridine-5-carboxamide] | – | 110 | –
CC(C)(C)OC(=O)N1Cc2cc(C#Cc3cc(-c4nn(CCCN5CCOCC5)c5c4CN(S(C)(=O)=O)CC5)ccc3Cl)ccc2C[C@H]1C(=O)O [Example 464, (3S)-7-({2-Chloro-5-[5-(methylsulfonyl)-1-(3-morpholin-4-ylpropyl)-4,5,6,7-tetrahydro-1H-pyrazolo[4,3-c]pyridin-3-yl]phenyl}ethynyl)-2-{[(1,1-dimethylethyl)oxy]carbonyl}-1,2,3,4-tetrahydroisoquinoline-3-carboxylic acid] | – | – | IC50 (read-out: CatS IC50, Table 4, average of results obtained): 630 nM
NC(=O)N1CCc2c(c(-c3ccc(Cl)c(C#Cc4ccc5c(c4)CN(Cc4ccc(Cl)cc4)CC5)c3)nn2CCCN2CCOCC2)C1 [Example 465, 3-[4-Chloro-3-({2-[(4-chlorophenyl)methyl]-1,2,3,4-tetrahydroisoquinolin-7-yl}ethynyl)phenyl]-1-(3-morpholin-4-ylpropyl)-1,4,6,7-tetrahydro-5H-pyrazolo[4,3-c]pyridine-5-carboxamide] | – | 150 | –
CS(=O)(=O)N1CCc2c(c(-c3ccc(Cl)c(C#Cc4ccc5c(c4)CN[C@H](C(=O)N4CCCC4)C5)c3)nn2CCCN2CCOCC2)C1 [Example 466, (3S)-7-({2-Chloro-5-[5-(methylsulfonyl)-1-(3-morpholin-4-ylpropyl)-4,5,6,7-tetrahydro-1H-pyrazolo[4,3-c]pyridin-3-yl]phenyl}ethynyl)-3-(pyrrolidin-1-ylcarbonyl)-1,2,3,4-tetrahydroisoquinoline] | 50 | – | –
C[C@H]1COCCN1CCCn1nc(-c2ccc(Cl)c(C#Cc3ccc4c(c3)CN(C(=O)OC(C)(C)C)CC4)c2)c2c1CCN(S(C)(=O)=O)C2 [Example 467, 1,1-Dimethylethyl 7-({2-chloro-5-[1-{3-[(3S)-3-methylmorpholin-4-yl]propyl}-5-(methylsulfonyl)-4,5,6,7-tetrahydro-1H-pyrazolo[4,3-c]pyridin-3-yl]phenyl}ethynyl)-3,4-dihydroisoquinoline-2(1H)-carboxylate] | – | 260 | –
CS(=O)(=O)N1CCc2c(c(-c3ccc(Cl)c(C#Cc4ccc(CNCCO)cc4)c3)nn2CCCN2CCOCC2)C1 [Example 469, 2-({[4-({2-Chloro-5-[5-(methylsulfonyl)-1-(3-morpholin-4-ylpropyl)-4,5,6,7-tetrahydro-1H-pyrazolo[4,3-c]pyridin-3-yl]phenyl}ethynyl)phenyl]methyl}amino)ethanol] | – | 530 | –
CS(=O)(=O)N1CCc2c(c(-c3ccc(Cl)c(C#CC4CCCCC4)c3)nn2C[C@@H](O)CN2CCC(C3CCNCC3)CC2)C1 [Example 472, (2S)-1-(4,4′-Bipiperidin-1-yl)-3-{3-[4-chloro-3-(cyclohexylethynyl)phenyl]-5-(methylsulfonyl)-4,5,6,7-tetrahydro-1H-pyrazolo[4,3-c]pyridin-1-yl}propan-2-ol] | 4510 | – | –
CS(=O)(=O)N1CCc2c(c(-c3ccc(Cl)c(C#Cc4ccccn4)c3)nn2C[C@@H](O)CN2CCC(C3CCNCC3)CC2)C1 [Example 473, (2S)-1-(4,4′-Bipiperidin-1-yl)-3-{3-[4-chloro-3-(pyridin-2-ylethynyl)phenyl]-5-(methylsulfonyl)-4,5,6,7-tetrahydro-1H-pyrazolo[4,3-c]pyridin-1-yl}propan-2-ol] | – | 120 | –
CS(=O)(=O)N1CCc2c(c(-c3ccc(Cl)c(C#Cc4cccnc4)c3)nn2C[C@@H](O)CN2CCC(C3CCNCC3)CC2)C1 [Example 475, (2S)-1-(4,4′-Bipiperidin-1-yl)-3-{3-[4-chloro-3-(pyridin-3-ylethynyl)phenyl]-5-(methylsulfonyl)-4,5,6,7-tetrahydro-1H-pyrazolo[4,3-c]pyridin-1-yl}propan-2-ol] | – | 180 | –
NC(=O)N1CCc2c(c(-c3ccc(Cl)c(C#Cc4ccc(CN[C@@H]5CCCc6ccccc65)cc4)c3)nn2CCCN2CCOCC2)C1 [Example 477, 3-{4-Chloro-3-[(4-{[(1R)-1,2,3,4-tetrahydronaphthalen-1-ylamino]methyl}phenyl)ethynyl]phenyl}-1-(3-morpholin-4-ylpropyl)-1,4,6,7-tetrahydro-5H-pyrazolo[4,3-c]pyridine-5-carboxamide] | – | 100 | –
NC(=O)N1CCc2c(c(-c3ccc(Cl)c(CCc4ccc(Cl)cc4)c3)nn2C[C@@H](O)CN2CCC(C3CCNCC3)CC2)C1 [Example 479, 1-[(2S)-3-(4,4′-Bipiperidin-1-yl)-2-hydroxypropyl]-3-{4-chloro-3-[2-(4-chlorophenyl)ethyl]phenyl}-1,4,6,7-tetrahydro-5H-pyrazolo[4,3-c]pyridine-5-carboxamide] | 20 | – | –
CS(=O)(=O)N1CCc2c(c(-c3ccc(Cl)c(C#Cc4ccc(CNCC(F)(F)F)cc4)c3)nn2CCCN2CCN(c3ccccc3)CC2)C1 [Example 480, N-({4-[(2-Chloro-5-{5-(methylsulfonyl)-1-[3-(4-phenylpiperazin-1-yl)propyl]-4,5,6,7-tetrahydro-1H-pyrazolo[4,3-c]pyridin-3-yl}phenyl)ethynyl]phenyl}methyl)-2,2,2-trifluoroethanamine] | – | 100 | –
CS(=O)(=O)N1CCc2c(c(-c3ccc(Cl)c(C#Cc4ccc5cc[nH]c5n4)c3)nn2CCCN2CCOCC2)C1 [Example 482, 3-[4-Chloro-3-(1H-pyrrolo[2,3-b]pyridin-6-ylethynyl)phenyl]-5-(methylsulfonyl)-1-(3-morpholin-4-ylpropyl)-4,5,6,7-tetrahydro-1H-pyrazolo[4,3-c]pyridine] | – | 180 | –
CS(=O)(=O)N1CCc2c(c(-c3ccc(Cl)c(C#Cc4ccc5c(c4)CC(C(=O)N4CCCC4)NC5)c3)nn2CCCN2CCOCC2)C1 (centres unmarked) [Example 484, 6-({2-Chloro-5-[5-(methylsulfonyl)-1-(3-morpholin-4-ylpropyl)-4,5,6,7-tetrahydro-1H-pyrazolo[4,3-c]pyridin-3-yl]phenyl}ethynyl)-3-(pyrrolidin-1-ylcarbonyl)-1,2,3,4-tetrahydroisoquinoline] | 180 | – | –

Further lines, with some results ahead:

IC50 [nM] | Structure (SMILES) | IC50 (CatS IC50) [nM] | also measured
190 | CS(=O)(=O)N1CCc2c(c(-c3ccc(Cl)c(C#Cc4ccc(CNCc5ccc(Cl)cc5)cc4)c3)nn2CCCN2CC3(COC3)C2)C1 [Example 468, 1-{4-[(2-Chloro-5-{5-(methylsulfonyl)-1-[3-(2-oxa-6-azaspiro[3.3]hept-6-yl)propyl]-4,5,6,7-tetrahydro-1H-pyrazolo[4,3-c]pyridin-3-yl}phenyl)ethynyl]phenyl}-N-[(4-chlorophenyl)methyl]methanamine] | – | –
50 | CS(=O)(=O)N1CCc2c(c(-c3ccc(Cl)c(C#Cc4ccc(CNC5CCc6ccccc65)cc4)c3)nn2CCCN2CCN(c3ccccn3)CC2)C1 (centres unmarked) [Example 470, N-({4-[(2-Chloro-5-{5-(methylsulfonyl)-1-[3-(4-pyridin-2-ylpiperazin-1-yl)propyl]-4,5,6,7-tetrahydro-1H-pyrazolo[4,3-c]pyridin-3-yl}phenyl)ethynyl]phenyl}methyl)-2,3-dihydro-1H-inden-1-amine] | – | –
430 | CS(=O)(=O)N1CCc2c(c(-c3ccc(Cl)c(C#CCc4ccccc4)c3)nn2C[C@@H](O)CN2CCC(C3CCNCC3)CC2)C1 [Example 474, (2S)-1-(4,4′-Bipiperidin-1-yl)-3-{3-[4-chloro-3-(3-phenylprop-1-yn-1-yl)phenyl]-5-(methylsulfonyl)-4,5,6,7-tetrahydro-1H-pyrazolo[4,3-c]pyridin-1-yl}propan-2-ol] | – | –
120 | NC(=O)N1CCc2c(c(-c3ccc(Cl)c(CCc4ccc(CNCc5ccc(Cl)cc5)cc4)c3)nn2CCCN2CCOCC2)C1 [Example 476, 3-(4-Chloro-3-{2-[4-({[(4-chlorophenyl)methyl]amino}methyl)phenyl]ethyl}phenyl)-1-(3-morpholin-4-ylpropyl)-1,4,6,7-tetrahydro-5H-pyrazolo[4,3-c]pyridine-5-carboxamide] | – | –
40 | CC(NCc1ccc(C#Cc2cc(-c3nn(CCCN4CCN(c5ccccc5)CC4)c4c3CN(S(C)(=O)=O)CC4)ccc2Cl)cc1)c1ccccc1 (centres unmarked) [Example 478, N-({4-[(2-Chloro-5-{5-(methylsulfonyl)-1-[3-(4-phenylpiperazin-1-yl)propyl]-4,5,6,7-tetrahydro-1H-pyrazolo[4,3-c]pyridin-3-yl}phenyl)ethynyl]phenyl}methyl)-1-phenylethanamine] | – | –
3520 | C[C@H]1COCCN1CCCn1nc(-c2ccc(Cl)c(C#Cc3ccc4c(c3)CN(C3CC3)CC4)c2)c2c1CCNC2 [Example 481, 7-{[2-Chloro-5-(1-{3-[(3S)-3-methylmorpholin-4-yl]propyl}-4,5,6,7-tetrahydro-1H-pyrazolo[4,3-c]pyridin-3-yl)phenyl]ethynyl}-2-cyclopropyl-1,2,3,4-tetrahydroisoquinoline] | – | –
140 | CS(=O)(=O)N1CCc2c(c(-c3ccc(Cl)c(C#Cc4ccc5c(c4)CC(C(=O)N4CCOCC4)NC5)c3)nn2CCCN2CCOCC2)C1 (centres unmarked) [Example 483, 6-({2-Chloro-5-[5-(methylsulfonyl)-1-(3-morpholin-4-ylpropyl)-4,5,6,7-tetrahydro-1H-pyrazolo[4,3-c]pyridin-3-yl]phenyl}ethynyl)-3-(morpholin-4-ylcarbonyl)-1,2,3,4-tetrahydroisoquinoline] | – | –
